The test system of one assay is Ehrlich. Briefly: Cytotoxicity against mouse EAC cells. The format is functional, cell-based.
A further assay relates to L1210. Briefly: Cytotoxicity against mouse L1210 cells. The format is functional, cell-based.

The source made the active and inactive calls. The calls are words filed in the database; no cut-off is given here.

Regarding `CCCCC/C=C\C[C@@]1(O)C=C(Cl)C(=O)/C1=C/[C@H](OC(C)=O)[C@H](CCCC(=O)OC)OC(C)=O`, the result in the assay with Ehrlich and in the assay on L1210 was Active.

`CC/C=C\C/C=C\C[C@@]1(O)C=C(Cl)C(=O)/C1=C/[C@H](OC(C)=O)[C@H](CCCC(=O)OC)OC(C)=O`: the result in the assay with Ehrlich and in the assay with L1210 was Active.

For the origin of these results see ChEMBL document CHEMBL1148069, “The punaglandins: 10-chloroprostanoids from the octocoral Telesto riisei” (J Nat Prod, 1994).
